# Experimental data published in patent US20140228435A1, “COMPOSITION AND METHOD OF SYNTHESIZING A BIOMOLECULE AND ITS THERAPEUTICS APPLICATIONS” (priority 2013, published 2014).
# “And” between values parts separate entries of the source, which are not always exact repeats. Identical values can stand only once. Like-named read-outs stand apart in the source and are kept apart here.
# How the values were obtained:
# fatty tissue = assay: Triceps skin fold (TSF) thickness by caliper at right mid-upper arm, one-year volunteer trial; type: in vivo, human volunteers
# Experimental: (§1) According to an embodiment of the embodiments herein, N(omega)′-protonated L-arginine was chemically converted into J-Factor ex-vivo. To prevent synthetic J-factor from damaging the alimentary canal after oral administration, it was formulated at a pH value that is safe for the canal like 7.0 which is the safest pH. Then, converted/synthetic produced ex-vivo J-Factor was orally administrated to a small group of 11 volunteers for one year. Each volunteers were given 0.5 mg per 10 days (=1.5 mg/month) and photographs were taken in each case to record the changes in their faces and heads.
# (§2) In addition, to eliminate other factors probably influencing results during the trial, they were prevented from exercising and changing previous food schedule such as meat except the J-Factor. Their intake of meat was at least 200 gram per day in the food schedule before the trial and wouldn't change during the trial. Because the amount of N(omega)′-protonated L-arginine in raw meat is more than 1%, their intake of N(omega)′-protonated L-arginine was more than 60000 mg per month through meat without change before and during the trial, which was more than 40000 times the J-Factor intake. Anyway, one-third of N (omega)′-protonated L-arginine is chemically converted into J-Factor and they can't separated from each other. Thus, regardless of food L-arginine, Each volunteer took N(omega)′-protonated L-arginine 3 mg per month together with J-Factor that was less than 1/20000 times the N(omega)′-protonated L-arginine intake through meat without change before and during the trial. Therefore, the physical changes observed in the volunteers weren't caused by N(omega)′-protonated L-arginine.
# Anyway, the triceps skin fold (TSF) thickness was measured in millimetres with the caplier at the mid-back of the right mid-upper arm [mid-point between the tip of the shoulder and the tip of the elbow (olecranon process and the acromium)] to evaluate the change in fatty tissue during the trial. The amounts measured and calculated are listed below: […]
# eye's central vision = assay: Eye's central vision examined with the E-chart, one-year volunteer trial; type: in vivo, human volunteers; parameters: scale not given here; conditions: one value per volunteer
# Experimental: as §1, §2
# Eye' central vision was examined with the E-chart and the following numbers were measured and concluded: […]
# [1] = Physical changes observed in volunteers after one year (photographs of faces and heads); type: in vivo, human volunteers; conditions: each volunteer after one year of oral J-Factor
# Experimental: as §1, §2
# IGF-1mRNA = assay: Expression of IGF-1mRNA in fatty tissue of mid-upper arm by real-time RT-PCR; type: in vivo, human volunteers
# Experimental: as §1
# as §2, with “Therefore, the physical changes observed in the volunteers weren't caused by N(omega)′-protonated L-arginine.” left out
# It's clear that any composition that stimulates the synthesis and secretion of autocrine-paracrine IGF-1 performs it only through increasing the expression of IGF-1mRNA in the cell. Therefore, the expression of IGF-1mRNA was measured in the fatty tissue at the mid-back of the mid-upperarm of the volunteers by real-time RT-PCR (Reverse transcription-polymerase chain reaction) at the beginning and end of the trial and the following numbers were obtained: […]
# [2] = cited from earlier work
# [3] = tested on: muscle (muscular hypertrophy); assay: Mid-upper arm circumference (MUAC) and muscle circumference (MUAMC), muscular hypertrophy, one-year volunteer trial; type: in vivo, human volunteers
# Experimental: as §1, §2
# It's derived in cm from the MUAC (mid-upper arm circumference) in cm and the TSF (triceps skin fold) in mm according to the formula “MUAMC=MUAC−(π×TSF/10)”. Finally, the following numbers were measured and concluded: […]
# [4] = Acid dissociation constants (pKa), with van't Hoff temperature calculation; type: physicochemical
# Experimental: Furthermore, the deprotonation of the guanidinium and N(delta)-protonated diaminomethyleneamino groups is endothermic and reversible. Therefore the results are as follows. • 1—At pH less than 7.48 together with 25° C. or less, the concentration of their deprotonated form in the side chain is too little and insignificant to be chemically considered. • 2—Under physiological conditions (pH 7.40 and 37° C.) of a living body, the concentration of L-2-amino-5-diaminomethyleneamino-pentanoic acid not protonated in the side chain and a extremely weak stimulator for autocrine-paracrine IGF-1, is too little and insignificant to stimulates synthesis and secretion of the IGF-1. • 3—At pH less than 7.48 together with 25° C. or less and under physiological conditions (pH 7.40 and 37° C.), 1-arginine and L-2-amino-5-diaminomethyleneamino-pentanoic acid is practically as protonated in the side chain.
# In addition, it has a Pka of 8.39 in the protonated 2-amino group at 37° C. calculated based on the integrated form of the van't Hoff equation and ΔH°=43.8 kj/mol=[…] in the deprotonation of the protonated 2-amino group. Consequently, with respect to/regarding the Henderson-Hasselbalch equation, the formula of the J Factor is as follows: • 1—At 25° C., the dominant structural formula of J-Factor at pH more than 2.17 and less than 9.04 is as follows:
# Further, in the conversion of N(omega)′-protonated L-arginine to Larginine and a proton, K (equilibrium constant)=Ka (acid dissociation constant). Consequently, the integrated form of the van't Hoff equation is changed as follows:
# Log(Ka2/Ka1)=(ΔH°/R)(1/T1−1/T2)
# wherein Ka1 is the acid dissociation constant at absolute temperature T1, Ka2 is the acid dissociation constant at absolute temperature T2. Now, the calculated ratios of Ka2 at 100° C., 75° C., 50° C., 37° C. and 30° C. to Ka1 at 25° C. and their pKa's in the conversion are given below, where pKa is a minus the logarithm of the acid dissociation constant. • 1—At 100° C.: […]
# [5] = Complications and safety, synthetic J-Factor in the 11 volunteers compared with biosynthetic GH; type: in vivo, human volunteers
# Experimental: as §1
# In fact, all of the above mentioned changes help in preventing or limiting the aging signs. The advantage of using ex-vivo synthesized J-Factor of the embodiments herein when compared to biosynthetic GH is shown in the comparative table below: […]
# [6] = Second trial (second year): J-Factor withdrawn, unconverted N(omega)′-protonated L-arginine given; type: in vivo, human volunteers; conditions: 1.5 mg per 10 days
# Experimental: After the first year, the applicant withdrew J-Factor and would give the initial N(omega)′protonated L-arginine (reactant) not converted to J-Factor 1.5 mg per 10 days to each volunteer without any other changes and wouldn't make them aware, in order to better compare the reactant and J-Factor.
# [7] = biosynthetic GH, comparison; cited from earlier work
# [8] = sum of 11 volunteers, Start to End
# [9] = Start to End (one year), one value per volunteer
molecule,measurement,setting,value
"NC(N)=NCCCC(N)C(=O)O [J-Factor, N(delta)-protonated L-2-amino-5-diaminomethyleneamino-pentanoic acid]",TSF (mm) End,"fatty tissue; J-Factor 0.5 mg per 10 days orally, End = one year after the start, one value per volunteer (11)",20 mm and 3 mm (2×) and 7 mm and 10 mm (2×) and 12 mm and 14 mm and 13 mm (2×) and 17 mm
same,TSF (mm) Decrease,"fatty tissue; Start to End (one year), J-Factor 0.5 mg per 10 days orally, one value per volunteer",18 mm and 3 mm and 4 mm (2×) and 6 mm and 5 mm (2×) and 7 mm (3×) and 19 mm
same,"TSF (mm) Decrease, sum",fatty tissue; [8],85 mm
same,"TSF Decrease, percent of sum",fatty tissue; [8],(41.7%)
same,"TSF (mm) End, sum","fatty tissue; sum of 11 volunteers, one year after the start (Start sum 207)",122 mm
same,Left Eye' central vision increase,eye's central vision; Start to End (one year),ZERO (2×) and 1 (4×) and 9 and 3 (2×) and 2 (2×)
same,Right Eye' central vision increase,eye's central vision; Start to End (one year),ZERO (3×) and 1 (2×) and 3 and 2 (4×) and 4
same,Left Eye' central vision End,eye's central vision; one year after the start,10 (8×) and 9 and 3 and 5
same,Right Eye' central vision End,eye's central vision; one year after the start,10 (8×) and 8 and 6 and 3
same,change in fatty tissue e.g. in abdomen,[1],decrease in fatty tissue e.g. in abdomen
same,eye's central vision,[1],improvement in eye's central vision
same,hair growth,[1],hair growth
same,muscular hypertrophy,[1],muscular hypertrophy
same,tone and color of facial skin,[1],improved tone and color of facial skin
same,IGF-1 mRNA increase,IGF-1mRNA; [9],yes
same,IGF-1 production,IGF-1mRNA; conclusion from one-year trial with ex-vivo synthesized J-Factor,stimulated IGF-1 production
same,IGF-1 mRNA (copy/mg) End,"IGF-1mRNA; fatty tissue at mid-back of mid-upper arm, one year after the start, one value per volunteer",1.8 × 10^7 copy/mg and 7.7 × 10^7 copy/mg and 1.2 × 10^10 copy/mg and 9.2 × 10^6 copy/mg and 7.2 × 10^8 copy/mg and 6.0 × 10^8 copy/mg and 2.1 × 10^9 copy/mg and 1.0 × 10^10 copy/mg and 5.2 × 10^7 copy/mg and 6.3 × 10^6 copy/mg and 1.1 × 10^9 copy/mg
same,pKa of carboxyl group,[2]; room temperature (25° C.),2.17
same,pKa of guanidinium / N(delta)-protonated diaminomethyleneamino group,[2]; room temperature (25° C.),12.48
same,pKa of protonated 2-amino group,[2]; room temperature (25° C.),9.04
same,MUAMC (cm) End,"[3]; MUAMC=MUAC−(π×TSF/10), one year after the start, one value per volunteer",21.2 cm and 24.7 cm and 28.1 cm and 29.5 cm and 19.9 cm and 27.7 cm and 26.9 cm and 27.2 cm and 24.1 cm and 24.0 cm and 21.6 cm
same,MUAMC (cm) increase,[3]; [9],1.7 cm and 1.3 cm and 2.0 cm (2×) and 2.1 cm (2×) and 1.1 cm and 2.7 cm and 1.8 cm and 2.8 cm and 2.4 cm
same,MUAC (cm) End,"[3]; right arm, one year after the start, J-Factor 0.5 mg per 10 days orally, one value per volunteer",27.5 cm and 25.6 cm and 29.0 cm and 31.7 cm and 23.0 cm and 31.5 cm and 30.0 cm and 31.6 cm and 28.2 cm and 29.3 cm and 25.9 cm
same,"MUAMC (cm) increase, sum",[3]; [8],22.0 cm
same,"MUAMC increase, percent of sum",[3]; [8],(8.7%)
same,"MUAMC (cm) End, sum","[3]; sum of 11 volunteers, one year after the start (Start sum 252.9)",274.9 cm
same,pKa,[4]; pKa of guanidinium / N(delta)-protonated diaminomethyleneamino group,11.7
same,pKa,[4]; pKa of protonated 2-amino group,8.39
same,"complications such as joint swelling, carpal tunnel syndrome or joint pain",[5]; in the 11 volunteers,invention showed no complications
same,antigenicity,[5]; synthetic J-Factor,Non-antigenic
same,diabetogenicity,[5]; synthetic J-Factor,Non-diabetogenic
N=C(N)NCCCC(N)C(=O)O [N(omega)′-protonated L-arginine],pKa of guanidinium / N(delta)-protonated diaminomethyleneamino group,[2]; room temperature (25° C.),12.48
same,pKa,[4]; pKa of N(omega)′-protonated guanidino group,8.3
same,physical changes during the second year,"[6]; after withdrawal of J-Factor, volunteers not aware",the physical changes would return
same,IGF-1 production,[6]; conclusion from second trial,don't stimulated IGF-1 production
NC(N)=O [protonated urea],pKa,"[2]; 25° C., protonated urea",0.18
"Biosynthetic GH: biosynthetic growth hormone, comparator in the advantage table",antigenicity,[7],Antigenic
same,complications,[7],Joint swelling Carpal tunnel
same,diabetogenicity,[7],Diabetogenic
